Reference: PMC7401714 (Japanese Journal of Clinical Oncology, 2020)

Columns and labels:
Phase I = assay type: in vivo, human; conditions: for T lag / Tmax: median, [range]; for Tmax: human, in vivo, T max
advanced solid tumors = assay: Phase I; assay type: in vivo, human; conditions: for PFS, single patient: 500 mg once daily
[1] = test system: patients with advanced solid tumors; conditions: first-in-man trial outside of Japan; cited from earlier work
[2] = test system: Japanese patients with advanced solid tumors; assay: Phase I dose escalation; conditions: for Patients with TEAE leading to death: primary reason for death was disease progression

CN1CCC(COc2cnc(-c3cccc(Cn4nc(-c5cccc(C#N)c5)ccc4=O)c3)nc2)CC1 [Tepotinib]
12.9 months: PFS, single patient (advanced solid tumors; patient with urachal cancer (MET status not evaluable))
10 h: Tmax (Phase I; 500 mg, Day 1, 500 mg once daily (n = 6))
75%: patients with BOR of disease progression (advanced solid tumors; nine of 12 patients overall)
7 (58.3) n (%): Patients with any grade ≥3 TEAE ([2]; Total, all doses (n = 12))
1.38 (90% CI: 1.15–1.38) months: median PFS (advanced solid tumors; all patients (n = 12), 90% CI)
5 (41.7) n (%): Patients with any treatment-related TEAE ([2]; Total, all doses (n = 12))
41.7%: patients with tepotinib-related TEAEs of any grade ([2]; all doses (n = 12))
0.97 [0.97–2.00] h: T lag (Phase I; Day 1, 300 mg once daily (n = 3))
1.95 [1.95–1.97] h: T lag (Phase I; Day 1, 215 mg once daily (n = 3))
≤ 1400 mg once daily: dose up to which monotherapy was generally well tolerated [1]
remained stable: trough concentrations between cycles 1 and 4 (Phase I; individual patients)
4 (33.3) n (%): Patients with any serious TEAE ([2]; Total, all doses (n = 12))
could not be established: maximum tolerated dose (MTD) [1]
No clinically relevant abnormalities: vital signs and other safety observations ([2]; all doses)
11 (91.7) n (%): Patients with any TEAE ([2]; Total, all doses (n = 12))
8 h: Tmax (Phase I; 215 mg, Day 1, 215 mg once daily (n = 3)) | Tmax (Phase I; 215 mg, Day 14, 215 mg once daily (n = 3)) | Tmax (Phase I; 300 mg, Day 1, 300 mg once daily (n = 3))
1 (8.3) n (%): Tepotinib-related TEAE, Grade 3/4: Hyponatremia (grade 3) ([2]; Total, all doses (n = 12)) | Tepotinib-related TEAE, any grade: Acneiform dermatitis ([2]; Total, all doses (n = 12)) | Tepotinib-related TEAE, any grade: Decreased appetite ([2]; Total, all doses (n = 12)) | Tepotinib-related TEAE, any grade: Hyponatremia ([2]; Total, all doses (n = 12)) | Tepotinib-related TEAE, any grade: Nausea ([2]; Total, all doses (n = 12)) | Tepotinib-related TEAE, any grade: Serum creatinine increase ([2]; Total, all doses (n = 12)) | Tepotinib-related TEAE, any grade: Stomatitis ([2]; Total, all doses (n = 12)) | Tepotinib-related TEAE, any grade: Vomiting ([2]; Total, all doses (n = 12)) | Patients with TEAE leading to death ([2]; Total, all doses (n = 12))
4.6 months: PFS, single patient (advanced solid tumors; patient, MET-expressing (IHC 2+) gastric cancer, four prior lines of chemotherapy)
3 (25.0) n (%): Patients with any related grade ≥3 TEAE ([2]; Total, all doses (n = 12))
6 n (%): Patients with any TEAE ([2]; 500 mg once daily (n = 6))
1 n (%): Patients with any treatment-related TEAE ([2]; 215 mg once daily (n = 3)) | Tepotinib-related TEAE, any grade: Decreased appetite ([2]; 215 mg once daily (n = 3)) | Tepotinib-related TEAE, any grade: Dysgeusia ([2]; 215 mg once daily (n = 3)) | Tepotinib-related TEAE, any grade: Fatigue ([2]; 215 mg once daily (n = 3)) | Patients with any treatment-related TEAE ([2]; 300 mg once daily (n = 3)) | Tepotinib-related TEAE, any grade: Fatigue ([2]; 300 mg once daily (n = 3)) | Patients with any serious TEAE ([2]; 500 mg once daily (n = 6)) | Tepotinib-related TEAE, Grade 3/4: Hyponatremia (grade 3) ([2]; 500 mg once daily (n = 6)) | Tepotinib-related TEAE, any grade: Acneiform dermatitis ([2]; 500 mg once daily (n = 6)) | Tepotinib-related TEAE, any grade: Dysgeusia ([2]; 500 mg once daily (n = 6)) | Tepotinib-related TEAE, any grade: Hyponatremia ([2]; 500 mg once daily (n = 6)) | Tepotinib-related TEAE, any grade: Nausea ([2]; 500 mg once daily (n = 6)) | Tepotinib-related TEAE, any grade: Serum creatinine increase ([2]; 500 mg once daily (n = 6)) | Tepotinib-related TEAE, any grade: Stomatitis ([2]; 500 mg once daily (n = 6)) | Tepotinib-related TEAE, any grade: Vomiting ([2]; 500 mg once daily (n = 6)) | Patients with TEAE leading to death ([2]; 500 mg once daily (n = 6))
2 n (%): Patients with any TEAE ([2]; 215 mg once daily (n = 3)) | Patients with related TEAE of special interest (lipase or amylase elevation of grade ≥3) ([2]; 500 mg once daily (n = 6)) | Tepotinib-related TEAE, Grade 3/4: Lipase increase (grade 4) ([2]; 500 mg once daily (n = 6)) | Tepotinib-related TEAE, any grade: Amylase increase ([2]; 500 mg once daily (n = 6)) | Tepotinib-related TEAE, any grade: Hypoalbuminemia ([2]; 500 mg once daily (n = 6)) | Tepotinib-related TEAE, any grade: Lipase increase ([2]; 500 mg once daily (n = 6))
3 n (%): Patients with any TEAE ([2]; 300 mg once daily (n = 3)) | Patients with any grade ≥3 TEAE ([2]; 300 mg once daily (n = 3)) | Patients with any serious TEAE ([2]; 300 mg once daily (n = 3)) | Patients with any related grade ≥3 TEAE ([2]; 500 mg once daily (n = 6)) | Patients with any treatment-related TEAE ([2]; 500 mg once daily (n = 6))
16.7%: patients with BOR of stable disease (SD) ≥12 weeks (advanced solid tumors; of 12 patients, both treated with 500 mg once daily)
2 (16.7) n (%): Patients with related TEAE of special interest (lipase or amylase elevation of grade ≥3) ([2]; Total, all doses (n = 12)) | Tepotinib-related TEAE, Grade 3/4: Lipase increase (grade 4) ([2]; Total, all doses (n = 12)) | Tepotinib-related TEAE, any grade: Amylase increase ([2]; Total, all doses (n = 12)) | Tepotinib-related TEAE, any grade: Dysgeusia ([2]; Total, all doses (n = 12)) | Tepotinib-related TEAE, any grade: Fatigue ([2]; Total, all doses (n = 12)) | Tepotinib-related TEAE, any grade: Hypoalbuminemia ([2]; Total, all doses (n = 12)) | Tepotinib-related TEAE, any grade: Lipase increase ([2]; Total, all doses (n = 12))
4 n (%): Patients with any grade ≥3 TEAE ([2]; 500 mg once daily (n = 6))
> 700 ng/mL: Caverage at steady state, all patients (Phase I; 500 mg once daily)
0.99 [0.47–1.98] h: T lag (Phase I; Day 1, 500 mg once daily (n = 6))
No DLTs: dose-limiting toxicities (DLTs) ([2]; 215, 300 and 500 mg once daily, cycle 1)
0 n (%): Patients with TEAE leading to treatment discontinuation ([2]; 215 mg once daily (n = 3)) | Patients with any grade ≥3 TEAE ([2]; 215 mg once daily (n = 3)) | Patients with any related grade ≥3 TEAE ([2]; 215 mg once daily (n = 3)) | Patients with any related serious TEAE ([2]; 215 mg once daily (n = 3)) | Patients with any serious TEAE ([2]; 215 mg once daily (n = 3)) | Patients with related TEAE leading to death ([2]; 215 mg once daily (n = 3)) | Patients with related TEAE of special interest (lipase or amylase elevation of grade ≥3) ([2]; 215 mg once daily (n = 3)) | Tepotinib-related TEAE, Grade 3/4: Hyponatremia (grade 3) ([2]; 215 mg once daily (n = 3)) | Tepotinib-related TEAE, Grade 3/4: Lipase increase (grade 4) ([2]; 215 mg once daily (n = 3)) | Tepotinib-related TEAE, any grade: Acneiform dermatitis ([2]; 215 mg once daily (n = 3)) | Tepotinib-related TEAE, any grade: Amylase increase ([2]; 215 mg once daily (n = 3)) | Tepotinib-related TEAE, any grade: Hypoalbuminemia ([2]; 215 mg once daily (n = 3)) | Tepotinib-related TEAE, any grade: Hyponatremia ([2]; 215 mg once daily (n = 3)) | Tepotinib-related TEAE, any grade: Lipase increase ([2]; 215 mg once daily (n = 3)) | Tepotinib-related TEAE, any grade: Nausea ([2]; 215 mg once daily (n = 3)) | Tepotinib-related TEAE, any grade: Serum creatinine increase ([2]; 215 mg once daily (n = 3)) | Tepotinib-related TEAE, any grade: Stomatitis ([2]; 215 mg once daily (n = 3)) | Tepotinib-related TEAE, any grade: Vomiting ([2]; 215 mg once daily (n = 3)) | Patients with TEAE leading to death ([2]; 215 mg once daily (n = 3)) | Patients with TEAE leading to treatment discontinuation ([2]; 300 mg once daily (n = 3)) | Patients with any related grade ≥3 TEAE ([2]; 300 mg once daily (n = 3)) | Patients with any related serious TEAE ([2]; 300 mg once daily (n = 3)) | Patients with related TEAE leading to death ([2]; 300 mg once daily (n = 3)) | Patients with related TEAE of special interest (lipase or amylase elevation of grade ≥3) ([2]; 300 mg once daily (n = 3)) | Tepotinib-related TEAE, Grade 3/4: Hyponatremia (grade 3) ([2]; 300 mg once daily (n = 3)) | Tepotinib-related TEAE, Grade 3/4: Lipase increase (grade 4) ([2]; 300 mg once daily (n = 3)) | Tepotinib-related TEAE, any grade: Acneiform dermatitis ([2]; 300 mg once daily (n = 3)) | Tepotinib-related TEAE, any grade: Amylase increase ([2]; 300 mg once daily (n = 3)) | Tepotinib-related TEAE, any grade: Decreased appetite ([2]; 300 mg once daily (n = 3)) | Tepotinib-related TEAE, any grade: Dysgeusia ([2]; 300 mg once daily (n = 3)) | Tepotinib-related TEAE, any grade: Hypoalbuminemia ([2]; 300 mg once daily (n = 3)) | Tepotinib-related TEAE, any grade: Hyponatremia ([2]; 300 mg once daily (n = 3)) | Tepotinib-related TEAE, any grade: Lipase increase ([2]; 300 mg once daily (n = 3)) | Tepotinib-related TEAE, any grade: Nausea ([2]; 300 mg once daily (n = 3)) | Tepotinib-related TEAE, any grade: Serum creatinine increase ([2]; 300 mg once daily (n = 3)) | Tepotinib-related TEAE, any grade: Stomatitis ([2]; 300 mg once daily (n = 3)) | Tepotinib-related TEAE, any grade: Vomiting ([2]; 300 mg once daily (n = 3)) | Patients with TEAE leading to death ([2]; 300 mg once daily (n = 3)) | Patients with TEAE leading to treatment discontinuation ([2]; 500 mg once daily (n = 6)) | Patients with any related serious TEAE ([2]; 500 mg once daily (n = 6)) | Patients with related TEAE leading to death ([2]; 500 mg once daily (n = 6)) | Tepotinib-related TEAE, any grade: Decreased appetite ([2]; 500 mg once daily (n = 6)) | Tepotinib-related TEAE, any grade: Fatigue ([2]; 500 mg once daily (n = 6)) | Patients with TEAE leading to treatment discontinuation ([2]; Total, all doses (n = 12)) | Patients with any related serious TEAE ([2]; Total, all doses (n = 12)) | Patients with related TEAE leading to death ([2]; Total, all doses (n = 12))
9.9 h: Tmax (Phase I; 300 mg, Day 14, 300 mg once daily (n = 3))
less than dose proportional: dose proportionality of exposure (Cmax, AUC0–t) (Phase I; after the first and multiple oral doses, 215–500 mg)
4.1 h: Tmax (Phase I; 500 mg, Day 14, 500 mg once daily (n = 5))
